Columns and labels:
[1] = target: T1, HER2 INS YVMA (Homo sapiens, UniProt P04626, INS775YVMA); test: Lance Kinase Activity Assay, Her2 Exon 20 InsYVMA; conditions: biochemical Lance assay
T1 construct: purchased DPF
Outline: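 TR-FRET (LANCE) assay: HER2 ex20 YVMA kinase phosphorylates ULight-peptide; compounds in 8-point 1:3 dilutions from 10 mM DMSO stock; ATP-started, 1 h at room temperature, stopped with EDTA plus Eu-anti-phosphopeptide antibody, 1 h more. Read 665/615 nm emission; IC50 from sigmoidal dose-response curves.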

[2] = test system: EGFR Exon 20 InsNPH Ba/F3; test: CellTiter-Glo cell viability, EGFR Exon 20 InsNPH Ba/F3; format: cell-based; conditions: Mus musculus, BaF3, 72 h, read-out: EGFR Exon 20 InsNPH Ba/F3 CTG IC50
Outline: (§1)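 After seeding at densities within the linear range and 24 h recovery, cells receive compound and grow a further 72 h at 37°C. ATP luminescence then reports viability, and IC50 is fitted from the concentration-response data.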

[3] = test system: Her2 Exon 20 InsYVMA Ba/F3; test: CellTiter-Glo cell viability, Her2 Exon 20 InsYVMA Ba/F3; format: cell-based; conditions: Mus musculus, BaF3, 72 h, read-out: Her2 Exon 20 InsYVMA Ba/F3 CTG IC50
Outline: as §1

[4] = test system: Cuto-17; test: CellTiter-Glo cell viability, Cuto-17; format: cell-based; conditions: CUTO17, 72 h, read-out: Cuto-17 CTG IC50
Outline: as §1

[5] = target: EGFR T790M L858R (Homo sapiens, UniProt P00533, L858R/T790M); test: Lance assay, EGFR T790M L858R; conditions: biochemical Lance assay
EGFR T790M L858R, sequence (P00533 25-1210 T790M/L858R): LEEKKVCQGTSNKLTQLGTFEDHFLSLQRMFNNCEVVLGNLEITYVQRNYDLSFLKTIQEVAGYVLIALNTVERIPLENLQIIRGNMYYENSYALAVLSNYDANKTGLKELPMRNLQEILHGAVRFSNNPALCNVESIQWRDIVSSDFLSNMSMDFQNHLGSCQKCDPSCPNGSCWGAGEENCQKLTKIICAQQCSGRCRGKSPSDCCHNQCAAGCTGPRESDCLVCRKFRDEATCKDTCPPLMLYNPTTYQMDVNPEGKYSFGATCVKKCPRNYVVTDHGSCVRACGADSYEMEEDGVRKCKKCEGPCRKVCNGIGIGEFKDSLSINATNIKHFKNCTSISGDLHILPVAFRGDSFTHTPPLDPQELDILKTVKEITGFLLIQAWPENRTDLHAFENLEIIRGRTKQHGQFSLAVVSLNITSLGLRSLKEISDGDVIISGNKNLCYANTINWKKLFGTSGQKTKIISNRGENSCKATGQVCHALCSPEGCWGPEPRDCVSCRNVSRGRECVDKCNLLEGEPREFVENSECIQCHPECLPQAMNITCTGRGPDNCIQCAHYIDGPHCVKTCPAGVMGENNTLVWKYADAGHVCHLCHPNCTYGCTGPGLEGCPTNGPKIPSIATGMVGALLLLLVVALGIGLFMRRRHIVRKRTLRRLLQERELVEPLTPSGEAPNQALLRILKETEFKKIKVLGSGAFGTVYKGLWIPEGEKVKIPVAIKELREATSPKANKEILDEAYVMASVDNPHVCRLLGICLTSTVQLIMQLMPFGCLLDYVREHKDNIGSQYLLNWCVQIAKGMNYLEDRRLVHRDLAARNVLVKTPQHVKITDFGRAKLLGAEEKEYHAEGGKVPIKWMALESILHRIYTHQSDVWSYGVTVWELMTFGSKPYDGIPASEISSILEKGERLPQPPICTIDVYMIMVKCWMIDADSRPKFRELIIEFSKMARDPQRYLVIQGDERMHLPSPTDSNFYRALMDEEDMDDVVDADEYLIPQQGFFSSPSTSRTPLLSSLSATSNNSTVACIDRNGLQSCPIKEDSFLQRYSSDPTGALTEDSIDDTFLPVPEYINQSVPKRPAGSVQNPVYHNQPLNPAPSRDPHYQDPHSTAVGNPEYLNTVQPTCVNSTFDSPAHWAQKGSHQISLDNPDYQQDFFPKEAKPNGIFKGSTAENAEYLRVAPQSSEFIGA

[6] = target: EGFR L858R (Homo sapiens, UniProt P00533, L858R); test: Lance assay, EGFR L858R; conditions: biochemical Lance assay
EGFR L858R, sequence (P00533 25-1210 L858R): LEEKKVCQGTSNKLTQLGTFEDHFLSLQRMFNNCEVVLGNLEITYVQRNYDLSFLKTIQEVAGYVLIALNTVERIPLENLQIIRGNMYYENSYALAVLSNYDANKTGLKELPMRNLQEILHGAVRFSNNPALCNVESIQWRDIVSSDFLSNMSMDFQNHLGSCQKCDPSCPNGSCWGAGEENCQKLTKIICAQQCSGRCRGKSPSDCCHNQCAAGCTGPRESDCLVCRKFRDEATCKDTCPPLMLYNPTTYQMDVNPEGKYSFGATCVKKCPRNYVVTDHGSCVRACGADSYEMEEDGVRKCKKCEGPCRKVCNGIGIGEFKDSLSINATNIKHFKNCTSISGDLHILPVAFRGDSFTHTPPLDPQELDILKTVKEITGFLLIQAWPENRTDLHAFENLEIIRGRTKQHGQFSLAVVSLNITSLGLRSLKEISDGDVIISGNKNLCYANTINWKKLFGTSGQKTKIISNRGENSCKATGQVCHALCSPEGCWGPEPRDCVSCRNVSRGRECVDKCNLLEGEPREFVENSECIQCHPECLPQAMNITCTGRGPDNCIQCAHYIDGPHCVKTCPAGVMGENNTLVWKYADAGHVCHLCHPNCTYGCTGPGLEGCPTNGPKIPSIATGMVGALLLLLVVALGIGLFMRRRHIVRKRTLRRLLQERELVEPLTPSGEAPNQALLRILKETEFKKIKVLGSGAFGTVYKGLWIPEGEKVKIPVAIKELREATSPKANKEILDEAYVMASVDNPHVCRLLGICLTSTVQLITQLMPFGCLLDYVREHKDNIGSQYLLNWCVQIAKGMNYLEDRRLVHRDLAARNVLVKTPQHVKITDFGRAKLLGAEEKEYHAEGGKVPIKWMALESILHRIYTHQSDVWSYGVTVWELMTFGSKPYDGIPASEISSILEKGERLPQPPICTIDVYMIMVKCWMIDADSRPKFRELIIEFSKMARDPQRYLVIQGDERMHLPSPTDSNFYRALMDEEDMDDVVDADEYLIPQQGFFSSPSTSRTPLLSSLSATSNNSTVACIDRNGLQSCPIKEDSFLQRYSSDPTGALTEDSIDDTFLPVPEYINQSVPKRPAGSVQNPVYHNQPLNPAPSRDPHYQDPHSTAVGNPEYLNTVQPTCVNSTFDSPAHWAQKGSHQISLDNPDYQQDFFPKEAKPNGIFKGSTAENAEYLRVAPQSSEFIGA

[7] = target: EGFR (del746-750) (Homo sapiens, UniProt P00533, DEL746-750); test: Lance assay, EGFR (del746-750); conditions: biochemical Lance assay
[8] = target: EGFR wt (Homo sapiens, UniProt P00533); test: Lance assay, EGFR wt; conditions: biochemical Lance assay
EGFR wt, sequence (P00533 25-1210): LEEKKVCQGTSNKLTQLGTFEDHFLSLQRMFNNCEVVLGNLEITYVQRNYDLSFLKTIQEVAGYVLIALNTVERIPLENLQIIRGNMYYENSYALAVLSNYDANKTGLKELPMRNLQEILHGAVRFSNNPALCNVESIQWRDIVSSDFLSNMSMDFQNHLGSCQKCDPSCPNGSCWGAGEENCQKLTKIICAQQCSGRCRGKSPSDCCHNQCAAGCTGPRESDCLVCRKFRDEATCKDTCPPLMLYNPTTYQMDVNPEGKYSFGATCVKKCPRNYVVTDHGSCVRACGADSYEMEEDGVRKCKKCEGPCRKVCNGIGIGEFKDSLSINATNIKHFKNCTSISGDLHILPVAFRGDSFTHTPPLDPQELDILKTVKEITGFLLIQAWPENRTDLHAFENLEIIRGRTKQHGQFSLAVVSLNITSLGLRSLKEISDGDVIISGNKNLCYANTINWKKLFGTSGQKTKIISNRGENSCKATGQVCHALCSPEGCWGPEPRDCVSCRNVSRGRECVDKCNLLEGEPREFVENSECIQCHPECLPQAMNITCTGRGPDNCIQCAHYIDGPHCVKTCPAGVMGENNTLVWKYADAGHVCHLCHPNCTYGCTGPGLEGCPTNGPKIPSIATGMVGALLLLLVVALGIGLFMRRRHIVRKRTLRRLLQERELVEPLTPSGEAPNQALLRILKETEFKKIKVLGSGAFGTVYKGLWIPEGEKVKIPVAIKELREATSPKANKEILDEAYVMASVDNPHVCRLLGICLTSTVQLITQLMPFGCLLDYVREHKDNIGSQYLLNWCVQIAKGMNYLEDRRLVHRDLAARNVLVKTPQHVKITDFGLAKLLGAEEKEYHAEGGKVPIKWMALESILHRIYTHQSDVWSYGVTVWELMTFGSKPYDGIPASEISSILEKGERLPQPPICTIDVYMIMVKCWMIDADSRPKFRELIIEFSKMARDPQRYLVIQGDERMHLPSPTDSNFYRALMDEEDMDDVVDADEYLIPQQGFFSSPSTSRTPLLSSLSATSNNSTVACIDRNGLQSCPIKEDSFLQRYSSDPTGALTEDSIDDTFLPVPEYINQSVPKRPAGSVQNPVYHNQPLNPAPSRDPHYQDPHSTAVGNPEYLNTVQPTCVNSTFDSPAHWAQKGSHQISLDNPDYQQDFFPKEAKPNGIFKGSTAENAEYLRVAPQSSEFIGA

[9] = test system: H1975; test: CellTiter-Glo cell viability, H1975; format: cell-based; conditions: Homo sapiens, NCI-H1975, 72 h, read-out: H1975 CTG IC50
Outline: as §1

[10] = test system: A431; test: CellTiter-Glo cell viability, A431; format: cell-based; conditions: Homo sapiens, A-431, 72 h, read-out: A431 CTG IC50
Outline: as §1

[11] = test system: EGFR L858R T790M Ba/F3; test: CellTiter-Glo cell viability, EGFR L858R T790M Ba/F3; format: cell-based; conditions: Mus musculus, BaF3, 72 h, read-out: EGFR L858R T790M Ba/F3 CTG IC50 /
Protocol: (§2) The CellTiter-Glo Luminescent Cell Viability Assay (Promega) is a homogeneous method of determining the number of viable cells in culture. It is based on quantification of ATP, indicating the presence of metabolically active cells. Cells are seeded on day 1 at cell numbers that assure assay linearity and optimal signal intensity. After incubation for 24h in humidified chambers at 37°C and 5% CO2, compounds in DMSO are added at different concentrations. Cells are further incubated for 72 h at 37°C and 5% CO2. Cells treated with the compound vehicle DMSO are used as positive controls and cells treated with 10 µM Staurosporine serve as negative controls. At day 5 the CellTiter Glo Reagent is prepared according to the instructions of the kit (Promega Inc.): Reagent is mixed 1:1 with cell culture medium. Thereon, mixture and assay plates are equilibrated at room temperature for 20 min. Equal volumes of the reagent-medium-mixture is added to the volume of culture medium present in each well. The plates are mixed at ∼200 rpm for 2 minutes on an orbital shaker. The microplates are then incubated at room temperature for 10 minutes for stabilization of the luminescent signal. Following incubation the luminescence is recorded on a Victor microplate reader (Perkin Elmer) using a 200 ms integration time. The data is then analyzed with Excel using the XLFIT Plugin (dose response Fit 205) for IC50-determination. As quality control the Z'-factor is calculated from 16 positive and negative control values. Only assay results showing a Z'-factor ≥ 0.5 are used for further analysis.

[12] = test system: EGFR L858R Ba/F3; test: CellTiter-Glo cell viability, EGFR L858R Ba/F3; format: cell-based; conditions: Mus musculus, BaF3, 72 h, read-out: EGFR L858R Ba/F3 CTG IC50 /
Protocol: as §2

[13] = test system: EGFR vIII Ba/F3; test: CellTiter-Glo cell viability, EGFR vIII Ba/F3; format: cell-based; conditions: Mus musculus, BaF3, 72 h, read-out: EGFR vIII Ba/F3 CTG IC50 /
Outline: as §1

T1 sequence (P04626 with tags, fused parts or gaps INS775YVMA): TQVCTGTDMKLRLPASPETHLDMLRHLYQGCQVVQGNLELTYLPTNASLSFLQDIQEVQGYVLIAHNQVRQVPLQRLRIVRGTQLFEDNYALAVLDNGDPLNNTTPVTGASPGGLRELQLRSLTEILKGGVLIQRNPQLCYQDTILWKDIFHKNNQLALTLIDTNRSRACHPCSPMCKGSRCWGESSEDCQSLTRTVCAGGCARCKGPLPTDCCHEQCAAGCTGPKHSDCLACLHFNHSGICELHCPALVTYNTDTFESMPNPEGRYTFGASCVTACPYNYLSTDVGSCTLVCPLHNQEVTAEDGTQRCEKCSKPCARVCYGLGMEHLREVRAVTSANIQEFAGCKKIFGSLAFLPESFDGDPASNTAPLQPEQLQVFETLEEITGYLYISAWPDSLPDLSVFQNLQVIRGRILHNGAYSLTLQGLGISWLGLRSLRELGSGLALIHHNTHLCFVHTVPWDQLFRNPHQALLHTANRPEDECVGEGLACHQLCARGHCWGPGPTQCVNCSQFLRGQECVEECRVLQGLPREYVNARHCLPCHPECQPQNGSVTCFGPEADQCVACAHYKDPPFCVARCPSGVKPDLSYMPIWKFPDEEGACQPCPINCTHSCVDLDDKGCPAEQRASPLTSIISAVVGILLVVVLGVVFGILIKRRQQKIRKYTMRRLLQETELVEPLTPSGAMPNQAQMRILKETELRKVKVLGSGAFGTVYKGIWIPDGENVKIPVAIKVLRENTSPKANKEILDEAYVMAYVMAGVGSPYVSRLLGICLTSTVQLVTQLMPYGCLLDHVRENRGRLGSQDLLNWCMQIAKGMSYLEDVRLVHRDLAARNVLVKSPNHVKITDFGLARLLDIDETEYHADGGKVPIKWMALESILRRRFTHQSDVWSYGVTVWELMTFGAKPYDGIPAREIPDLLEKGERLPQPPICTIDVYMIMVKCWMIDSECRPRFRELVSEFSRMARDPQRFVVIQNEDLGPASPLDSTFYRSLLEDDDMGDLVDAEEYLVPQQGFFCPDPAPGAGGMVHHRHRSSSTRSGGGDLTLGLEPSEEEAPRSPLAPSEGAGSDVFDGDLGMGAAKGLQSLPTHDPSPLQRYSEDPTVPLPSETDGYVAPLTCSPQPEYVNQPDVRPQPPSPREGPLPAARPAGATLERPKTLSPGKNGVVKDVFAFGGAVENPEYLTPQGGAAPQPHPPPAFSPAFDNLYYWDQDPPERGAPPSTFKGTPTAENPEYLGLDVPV

Row | Structure (SMILES) | IC50 [1] [nM] | IC50 [2] [nM] | IC50 [3] [nM] | IC50 [4] [nM] | IC50 [5] [nM] | IC50 [6] [nM] | IC50 [7] [nM] | IC50 [8] [nM] | IC50 [9] [nM] | IC50 [10] [nM] | IC50 [11] [nM] | IC50 [12] [nM] | IC50 [13] [nM]
1 | C=CC(=O)Nc1cc(-c2c(-c3cnn(CC)c3)[nH]c3ncc(C(=O)OC(C)C)cc23)cc(F)c1C [Example 5, isopropyl 3-(3-acrylamido-5-fluoro-4-methylphenyl)-2-(1-ethyl-1 H-pyrazol-4-yl)-1H-pyrrolo[2,3-b]pyridine-5-carboxylate] | 50 to 100 | 50 to 100 | 50 to 100 | 100 to 500 | ≤ 50 | ≤ 50 | ≤ 50 | ≤ 50 | 500 to 1000 | 1000 to 10000 | ≤ 50 | ≤ 50 | 100 to 500
2 | C=CC(=O)Nc1cc(-c2c(-c3cnn(C)c3)[nH]c3ncc(C(=O)OC(C)C)c(C)c23)ccc1C [Example 7, isopropyl 3-(3-acrylamido-4-methylphenyl)-4-methyl-2-(1-methyl-1H-pyrazol-4-yl)-1H-pyrrolo[2,3-b]pyridine-5-carboxylate2,2,2-trifluoroacetate] | 100 to 500 | 50 to 100 | 100 to 500 | 100 to 500 | ≤ 50 | ≤ 50 | ≤ 50 | ≤ 50 | 100 to 500 | 1000 to 10000 | 50 to 100 | ≤ 50 | 50 to 100
3 | C=CC(=O)Nc1cc(-c2c(-c3cnn(CCN(C)C)c3)[nH]c3ncc(C(=O)OC(C)C)c(C)c23)ccc1C [Example 15, isopropyl 3-(3-acrylamido-4-methylphenyl)-2-(1-(2-(dimethylamino)ethyl)-1 H-pyrazol-4-yl)-4-methyl-1 H-pyrrolo[2,3-b]pyridine-5-carboxylate] | ≤ 50 | 50 to 100 | 100 to 500 | 100 to 500 | ≤ 50 | ≤ 50 | ≤ 50 | ≤ 50 | 100 to 500 | 1000 to 10000 | ≤ 50 | ≤ 50 | 50 to 100

Reference: EP3868759A1, “2,3,5-SUBSTITUTED PYRROLO[2,3-B]PYRIDINES AS ERBB MODULATORS USEFUL FOR TREATING CANCER” (PearlRiver Bio GmbH, priority 2020, dated 2021)
